ChEMBL document CHEMBL2406977, “The discovery of PLK4 inhibitors: (E)-3-((1H-Indazol-6-yl)methylene)indolin-2-ones as novel antiproliferative agents” (J Med Chem, 2013)

Experiments:
[1] = target: Cytochrome P450 3A4 (Homo sapiens, UniProt P08684); test: Inhibition of CYP3A4 (unknown origin) after 10 mins by fluorescence assay; format: ADME
[2] = target: T1, Receptor-type tyrosine-protein kinase FLT3 (Homo sapiens, UniProt P36888); test: Inhibition of FLT3 (unknown origin) by FRET-based homogeneous assay
T1 sequence (P36888 whole entry): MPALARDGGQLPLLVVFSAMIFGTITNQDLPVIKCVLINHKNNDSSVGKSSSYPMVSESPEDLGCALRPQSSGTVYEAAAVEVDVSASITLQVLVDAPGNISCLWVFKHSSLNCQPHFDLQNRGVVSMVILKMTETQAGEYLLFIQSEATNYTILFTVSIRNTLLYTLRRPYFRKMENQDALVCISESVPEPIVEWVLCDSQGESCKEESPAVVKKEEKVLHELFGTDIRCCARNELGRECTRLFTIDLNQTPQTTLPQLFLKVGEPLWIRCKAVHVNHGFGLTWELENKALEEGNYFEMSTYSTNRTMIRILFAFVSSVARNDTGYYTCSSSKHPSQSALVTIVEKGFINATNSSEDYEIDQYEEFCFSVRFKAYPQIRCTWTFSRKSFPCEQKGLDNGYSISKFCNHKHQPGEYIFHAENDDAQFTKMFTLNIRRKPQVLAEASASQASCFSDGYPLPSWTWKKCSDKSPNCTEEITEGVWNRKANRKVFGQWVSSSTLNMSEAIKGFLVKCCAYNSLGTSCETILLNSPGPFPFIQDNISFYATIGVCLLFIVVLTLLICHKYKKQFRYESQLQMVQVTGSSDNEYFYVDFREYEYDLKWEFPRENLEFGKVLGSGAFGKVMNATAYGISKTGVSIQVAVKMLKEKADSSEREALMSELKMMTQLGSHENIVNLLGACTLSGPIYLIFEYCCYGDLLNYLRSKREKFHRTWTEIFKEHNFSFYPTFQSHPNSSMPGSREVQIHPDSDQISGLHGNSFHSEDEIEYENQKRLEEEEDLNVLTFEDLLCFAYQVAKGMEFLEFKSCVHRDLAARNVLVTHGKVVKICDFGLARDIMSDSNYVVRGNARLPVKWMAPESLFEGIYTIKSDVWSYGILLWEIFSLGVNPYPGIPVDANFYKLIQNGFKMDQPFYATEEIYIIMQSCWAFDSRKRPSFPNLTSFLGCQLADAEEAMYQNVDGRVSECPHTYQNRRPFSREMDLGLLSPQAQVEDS

[3] = target: T2, Cytochrome P450 1A2 (Homo sapiens, UniProt P05177); test: Inhibition of CYP1A2 (unknown origin) using CEC as substrate after 15 mins by fluorescence assay; format: ADME
T2 sequence (P05177 whole entry): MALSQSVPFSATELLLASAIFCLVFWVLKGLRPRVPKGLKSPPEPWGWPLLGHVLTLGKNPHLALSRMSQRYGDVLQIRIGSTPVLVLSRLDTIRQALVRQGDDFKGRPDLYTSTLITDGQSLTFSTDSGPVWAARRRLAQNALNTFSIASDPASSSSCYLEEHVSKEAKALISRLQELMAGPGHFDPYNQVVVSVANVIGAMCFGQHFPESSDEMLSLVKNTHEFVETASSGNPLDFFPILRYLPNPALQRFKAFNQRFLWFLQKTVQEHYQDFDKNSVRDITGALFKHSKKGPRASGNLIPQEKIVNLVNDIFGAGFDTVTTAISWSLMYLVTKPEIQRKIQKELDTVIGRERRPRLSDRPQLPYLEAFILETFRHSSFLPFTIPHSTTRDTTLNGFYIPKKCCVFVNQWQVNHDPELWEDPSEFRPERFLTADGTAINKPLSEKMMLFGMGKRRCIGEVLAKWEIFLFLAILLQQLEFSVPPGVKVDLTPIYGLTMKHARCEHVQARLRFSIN

[4] = test system: MDA-MB-231; test: Antiproliferative activity against human MDA-MB-231 cells assessed as growth inhibition after 5 days by SRB assay; format: functional; details: MDA-MB-231, 120 h
[5] = test system: MDA-MB-468; test: Antitumor activity against human MDA-MB-468 cells xenografted in CB-17 SCID mouse assessed as reduction in tumor size at 25 mg/kg, ip qd for 21 days relative to control; format: functional; details: MDA-MB-468, ip, 504 h, route intraperitoneal, read-out: TGI
[6] = target: Serine/threonine-protein kinase PLK2 (Homo sapiens, UniProt Q9NYY3); test: Inhibition of PLK2 (unknown origin) by FRET-based homogeneous assay
[7] = target: Cytochrome P450 2C9 (Homo sapiens, UniProt P11712); test: Inhibition of CYP2C9 (unknown origin) using MFC as substrate after 45 mins by fluorescence assay; format: ADME
[8] = target: Serine/threonine-protein kinase PLK1 (Homo sapiens, UniProt P53350); test: Inhibition of PLK1 (unknown origin) by FRET-based homogeneous assay
[9] = test system: MCF7; test: Antiproliferative activity against human MCF7 cells assessed as growth inhibition after 5 days by SRB assay; format: functional; details: MCF7, 120 h
[10] = test system: MDA-MB-468; test: Antiproliferative activity against human MDA-MB-468 cells assessed as growth inhibition after 5 days by SRB assay; format: functional; details: MDA-MB-468, 120 h
[11] = Cmax in SCID mouse at 50 mg/kg, ip; format: ADME, organism-based; parameters: dose 50 mg/kg, route intraperitoneal; details: in vivo
[12] = test system: MDA-MB-468; test: Antitumor activity against human MDA-MB-468 cells xenografted in CB-17 SCID mouse assessed as reduction in tumor size at 50 mg/kg, ip qd for 21 days; format: functional; details: MDA-MB-468, ip, 504 h, route intraperitoneal, read-out: TGI

Sequence of Cytochrome P450 3A4 (P08684 whole entry): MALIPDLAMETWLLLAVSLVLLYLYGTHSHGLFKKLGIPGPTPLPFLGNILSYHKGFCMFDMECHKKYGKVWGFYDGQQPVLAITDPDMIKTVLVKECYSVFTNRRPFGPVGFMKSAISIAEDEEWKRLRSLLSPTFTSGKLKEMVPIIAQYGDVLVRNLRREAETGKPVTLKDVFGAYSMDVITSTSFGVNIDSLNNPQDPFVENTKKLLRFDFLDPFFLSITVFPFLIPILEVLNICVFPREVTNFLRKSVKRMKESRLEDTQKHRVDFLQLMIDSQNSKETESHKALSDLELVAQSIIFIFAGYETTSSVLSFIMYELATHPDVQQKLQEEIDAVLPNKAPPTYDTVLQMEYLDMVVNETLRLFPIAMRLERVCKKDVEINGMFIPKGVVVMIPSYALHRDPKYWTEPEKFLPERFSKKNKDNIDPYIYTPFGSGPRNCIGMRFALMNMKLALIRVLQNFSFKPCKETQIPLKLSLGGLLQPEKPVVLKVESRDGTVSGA
Sequence of Cytochrome P450 2C9 (P11712 whole entry): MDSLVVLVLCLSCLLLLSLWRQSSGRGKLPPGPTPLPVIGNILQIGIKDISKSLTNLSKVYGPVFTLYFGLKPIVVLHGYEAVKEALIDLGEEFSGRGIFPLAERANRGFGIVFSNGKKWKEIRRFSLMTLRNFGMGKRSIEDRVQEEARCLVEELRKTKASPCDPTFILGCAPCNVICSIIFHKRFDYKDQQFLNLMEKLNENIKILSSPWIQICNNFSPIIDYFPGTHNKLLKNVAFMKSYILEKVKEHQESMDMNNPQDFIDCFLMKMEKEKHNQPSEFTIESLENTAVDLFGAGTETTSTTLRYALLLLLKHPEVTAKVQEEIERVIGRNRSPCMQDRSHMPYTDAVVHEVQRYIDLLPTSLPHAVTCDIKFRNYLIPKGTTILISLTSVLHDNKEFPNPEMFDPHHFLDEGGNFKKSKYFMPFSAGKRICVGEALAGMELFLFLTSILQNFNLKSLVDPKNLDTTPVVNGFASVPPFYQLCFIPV
Sequence of Serine/threonine-protein kinase PLK1 (P53350 whole entry): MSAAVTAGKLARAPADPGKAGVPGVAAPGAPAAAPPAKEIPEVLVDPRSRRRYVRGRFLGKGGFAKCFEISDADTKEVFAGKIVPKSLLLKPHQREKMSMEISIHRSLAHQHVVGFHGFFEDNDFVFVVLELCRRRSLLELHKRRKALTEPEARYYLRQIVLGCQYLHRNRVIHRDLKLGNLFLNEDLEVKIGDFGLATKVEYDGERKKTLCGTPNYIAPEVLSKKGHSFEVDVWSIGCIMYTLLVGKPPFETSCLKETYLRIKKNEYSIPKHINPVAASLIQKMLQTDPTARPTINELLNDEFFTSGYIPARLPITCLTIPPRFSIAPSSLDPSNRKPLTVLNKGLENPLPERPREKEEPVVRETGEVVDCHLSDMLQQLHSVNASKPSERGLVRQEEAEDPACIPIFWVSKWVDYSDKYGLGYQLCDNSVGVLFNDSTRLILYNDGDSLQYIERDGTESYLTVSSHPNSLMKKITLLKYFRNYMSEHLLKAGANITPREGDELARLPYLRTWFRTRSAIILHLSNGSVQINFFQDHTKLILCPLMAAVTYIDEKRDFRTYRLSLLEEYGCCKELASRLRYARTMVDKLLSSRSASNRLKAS
Sequence of Serine/threonine-protein kinase PLK2 (Q9NYY3 whole entry): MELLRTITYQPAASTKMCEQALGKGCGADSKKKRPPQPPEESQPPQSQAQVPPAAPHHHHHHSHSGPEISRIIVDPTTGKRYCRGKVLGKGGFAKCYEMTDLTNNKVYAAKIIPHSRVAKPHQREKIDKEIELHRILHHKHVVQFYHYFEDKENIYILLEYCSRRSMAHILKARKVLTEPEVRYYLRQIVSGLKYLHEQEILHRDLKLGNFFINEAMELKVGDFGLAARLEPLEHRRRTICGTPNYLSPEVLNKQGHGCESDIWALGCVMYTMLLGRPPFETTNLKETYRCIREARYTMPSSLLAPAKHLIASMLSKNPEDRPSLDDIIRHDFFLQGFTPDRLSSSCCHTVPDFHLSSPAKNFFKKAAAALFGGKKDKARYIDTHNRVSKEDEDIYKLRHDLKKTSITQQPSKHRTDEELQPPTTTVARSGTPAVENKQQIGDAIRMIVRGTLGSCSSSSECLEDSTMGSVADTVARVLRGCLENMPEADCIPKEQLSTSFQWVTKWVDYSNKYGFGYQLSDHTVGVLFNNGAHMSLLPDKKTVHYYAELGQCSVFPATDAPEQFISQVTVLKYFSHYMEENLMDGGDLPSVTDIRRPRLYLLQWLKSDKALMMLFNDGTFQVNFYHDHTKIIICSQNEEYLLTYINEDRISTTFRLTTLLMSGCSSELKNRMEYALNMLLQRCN

IC50 [1]: 10000 nM | IC50 [2]: 180 nM | IC50 [3]: > 10000 nM | GI50 [4]: < 10 nM | IC50 [6]: > 10000 nM | IC50 [7]: 800 nM | IC50 [8]: > 10000 nM | GI50 [9]: 10 nM | GI50 [10]: < 10 nM | Cmax [11]: 92 ng/mL
SMILES: COc1ccc2c(c1)/C(=C\c1ccc3c(/C=C/c4ccc(N5CCN(C)CC5)nc4)n[nH]c3c1)C(=O)N2
inhibition in vivo at 25 mg/kg [5]: 70% | inhibition in vivo at 50 mg/kg [12]: 120%
